Assays:
[1] = target: T1, ABL (Homo sapiens, UniProt P00519); test: Off-chip Mobility Shift Assay, kinase inhibition; type: biochemical; conditions: recombinant ABL; for inhibition at 0.001 µM: at 1 nM; for inhibition at 0.01 µM: at 10 nM
T1 construct: purchased Carna Biosciences, Inc

[2] = target: T2, HCK (Homo sapiens, UniProt P08631); test: Off-chip Mobility Shift Assay, kinase inhibition; type: biochemical; conditions: recombinant HCK; for inhibition at 0.001 µM: at 1 nM; for inhibition at 0.01 µM: at 10 nM, read-out: inhibition
T2 construct: purchased Carna Biosciences, Inc

[3] = tested on: SU-DHL-4; test: Cell inhibition assay (PrestoBlue, 48 h); type: cell-based; conditions: Homo sapiens, SU-DHL-4, 48 h, SU-DHL-4 diffuse large B-cell lymphoma cells, read-out: IC50, inhibition of growth
[4] = target: T3, DDR2 (Homo sapiens, UniProt Q16832); test: Off-chip Mobility Shift Assay, kinase inhibition; type: biochemical; conditions: at 10 nM; recombinant DDR2; read-out: inhibition
T3 construct: purchased Carna Biosciences, Inc
T3 sequence (Q16832 22-855): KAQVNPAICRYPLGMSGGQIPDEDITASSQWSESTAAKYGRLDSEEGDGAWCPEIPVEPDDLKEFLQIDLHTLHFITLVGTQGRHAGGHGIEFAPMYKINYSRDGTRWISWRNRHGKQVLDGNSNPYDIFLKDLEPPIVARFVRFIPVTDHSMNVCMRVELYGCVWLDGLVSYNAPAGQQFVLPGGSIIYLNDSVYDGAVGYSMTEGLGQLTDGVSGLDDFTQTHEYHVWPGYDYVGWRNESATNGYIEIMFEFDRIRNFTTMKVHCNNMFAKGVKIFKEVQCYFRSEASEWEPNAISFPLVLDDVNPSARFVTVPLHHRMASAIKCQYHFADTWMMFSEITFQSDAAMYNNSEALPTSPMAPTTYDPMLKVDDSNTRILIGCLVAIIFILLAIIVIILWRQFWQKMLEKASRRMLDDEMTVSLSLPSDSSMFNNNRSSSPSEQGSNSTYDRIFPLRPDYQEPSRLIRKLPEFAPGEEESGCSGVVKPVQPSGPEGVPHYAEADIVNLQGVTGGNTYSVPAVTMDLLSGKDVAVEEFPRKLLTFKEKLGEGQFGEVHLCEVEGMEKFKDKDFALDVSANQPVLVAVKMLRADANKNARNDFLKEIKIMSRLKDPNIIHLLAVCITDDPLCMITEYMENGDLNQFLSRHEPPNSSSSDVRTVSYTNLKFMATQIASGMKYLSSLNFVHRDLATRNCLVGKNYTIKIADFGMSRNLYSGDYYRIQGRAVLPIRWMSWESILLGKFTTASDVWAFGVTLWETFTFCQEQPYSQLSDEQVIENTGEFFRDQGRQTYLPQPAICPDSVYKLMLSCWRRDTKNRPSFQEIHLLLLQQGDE

[5] = tested on: Mino; test: Cell inhibition assay (PrestoBlue, 48 h); type: cell-based; conditions: Homo sapiens, Mino cells, read-out: IC50, inhibition of growth
[6] = target: T4, ARG (Homo sapiens, UniProt P42684); test: Off-chip Mobility Shift Assay, kinase inhibition; type: biochemical; conditions: at 10 nM; recombinant ARG; read-out: inhibition
T4 construct: purchased Carna Biosciences, Inc

[7] = target: T5, FGR (Homo sapiens, UniProt P09769); test: Off-chip Mobility Shift Assay, kinase inhibition; type: biochemical; conditions: at 10 nM; recombinant FGR; read-out: inhibition
T5 construct: purchased Carna Biosciences, Inc

[8] = target: T6, PIK3CA/PIK3R1 (Homo sapiens, UniProt P42336); test: Off-chip Mobility Shift Assay, kinase inhibition; type: biochemical; conditions: at 10 nM; recombinant PIK3CA/PIK3R1
T6 construct: purchased Carna Biosciences, Inc

[9] = target: T7, FYN(isoform a) (Homo sapiens, UniProt P06241); test: Off-chip Mobility Shift Assay, kinase inhibition; type: biochemical; conditions: at 10 nM; recombinant FYN(isoform a)
T7 construct: purchased Carna Biosciences, Inc

[10] = tested on: battery of selected protein kinases; test: In vitro screen of a battery of selected protein kinases (summary statement); type: biochemical; conditions: BTK, BMX, ABL, ABL(E255K), SRC, ACK, ARG, BLK, DDR2, EPHA, FGR, FMS, FRK, FYN, HCK, LCK, LYN, PDGFRα, PDGFRβ, YES, PIK3CA/PIK3R1, among others
[11] = target: T8, PDGFRβ (Homo sapiens, UniProt P09619); test: Off-chip Mobility Shift Assay, kinase inhibition; type: biochemical; conditions: at 10 nM; recombinant PDGFRβ; read-out: inhibition
T8 construct: purchased Carna Biosciences, Inc

[12] = target: T9, YES (Homo sapiens, UniProt P07947); test: Off-chip Mobility Shift Assay, kinase inhibition; type: biochemical; conditions: recombinant YES; for inhibition at 0.001 µM: at 1 nM; for inhibition at 0.01 µM: at 10 nM
T9 construct: purchased Carna Biosciences, Inc

[13] = target: T10, ABL(E255K) (Homo sapiens, UniProt P00519, E255K); test: Off-chip Mobility Shift Assay, kinase inhibition; type: biochemical; conditions: recombinant ABL(E255K); for inhibition at 0.001 µM: at 1 nM; for inhibition at 0.01 µM: at 10 nM
T10 construct: purchased Carna Biosciences, Inc

[14] = target: T11, BLK (Homo sapiens, UniProt P51451); test: Off-chip Mobility Shift Assay, kinase inhibition; type: biochemical; conditions: at 10 nM; recombinant BLK
T11 construct: purchased Carna Biosciences, Inc

[15] = target: T12, SRC (Homo sapiens, UniProt P12931); test: Off-chip Mobility Shift Assay, kinase inhibition; type: biochemical; conditions: recombinant SRC; for inhibition at 0.001 µM: at 1 nM; for inhibition at 0.01 µM: at 10 nM
T12 construct: purchased Carna Biosciences, Inc

[16] = target: T13, LYNa (Homo sapiens, UniProt P07948); test: Off-chip Mobility Shift Assay, kinase inhibition; type: biochemical; conditions: recombinant LYNa; for inhibition at 0.001 µM: at 1 nM; for inhibition at 0.01 µM: at 10 nM, read-out: inhibition
T13 construct: purchased Carna Biosciences, Inc

[17] = target: T14, PDGFRα (Homo sapiens, UniProt P16234); test: Off-chip Mobility Shift Assay, kinase inhibition; type: biochemical; conditions: at 10 nM; recombinant PDGFRα; read-out: inhibition
T14 construct: purchased Carna Biosciences, Inc

[18] = target: T15, ACK (Homo sapiens, UniProt Q07912); test: Off-chip Mobility Shift Assay, kinase inhibition; type: biochemical; conditions: at 10 nM; recombinant ACK
T15 construct: purchased Carna Biosciences, Inc

[19] = target: T16, FRK (Homo sapiens, UniProt P42685); test: Off-chip Mobility Shift Assay, kinase inhibition; type: biochemical; conditions: at 10 nM; recombinant FRK
T16 construct: purchased Carna Biosciences, Inc

T2 sequence (P08631 whole entry): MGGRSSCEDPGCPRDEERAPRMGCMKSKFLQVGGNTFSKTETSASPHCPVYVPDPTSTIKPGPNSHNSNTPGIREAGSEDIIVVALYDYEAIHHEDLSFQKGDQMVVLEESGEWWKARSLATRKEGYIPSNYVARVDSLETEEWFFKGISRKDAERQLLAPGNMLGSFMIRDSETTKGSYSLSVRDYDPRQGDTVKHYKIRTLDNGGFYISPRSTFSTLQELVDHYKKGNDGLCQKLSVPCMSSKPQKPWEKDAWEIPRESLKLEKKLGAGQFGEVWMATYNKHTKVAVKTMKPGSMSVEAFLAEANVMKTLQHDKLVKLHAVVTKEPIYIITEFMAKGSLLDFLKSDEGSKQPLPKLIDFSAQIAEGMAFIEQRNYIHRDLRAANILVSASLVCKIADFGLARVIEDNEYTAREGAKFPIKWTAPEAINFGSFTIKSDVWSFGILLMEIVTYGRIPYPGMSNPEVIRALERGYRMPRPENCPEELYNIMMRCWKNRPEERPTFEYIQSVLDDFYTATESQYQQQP
T9 sequence (P07947 whole entry): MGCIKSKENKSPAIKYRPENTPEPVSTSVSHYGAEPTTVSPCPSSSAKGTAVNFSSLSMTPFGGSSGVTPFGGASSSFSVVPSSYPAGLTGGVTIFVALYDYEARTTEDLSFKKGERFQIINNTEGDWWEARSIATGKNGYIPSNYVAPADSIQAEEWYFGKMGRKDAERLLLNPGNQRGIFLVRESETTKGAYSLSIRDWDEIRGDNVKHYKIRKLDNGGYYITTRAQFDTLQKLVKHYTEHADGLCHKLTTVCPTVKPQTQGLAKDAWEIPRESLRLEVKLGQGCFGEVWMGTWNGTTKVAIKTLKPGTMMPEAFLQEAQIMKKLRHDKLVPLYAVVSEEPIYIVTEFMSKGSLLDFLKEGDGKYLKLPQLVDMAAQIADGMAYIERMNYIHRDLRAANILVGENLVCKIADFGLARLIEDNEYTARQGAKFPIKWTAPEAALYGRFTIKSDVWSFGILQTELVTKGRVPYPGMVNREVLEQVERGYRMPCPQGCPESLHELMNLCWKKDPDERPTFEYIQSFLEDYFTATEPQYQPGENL
T12 sequence (P12931 whole entry): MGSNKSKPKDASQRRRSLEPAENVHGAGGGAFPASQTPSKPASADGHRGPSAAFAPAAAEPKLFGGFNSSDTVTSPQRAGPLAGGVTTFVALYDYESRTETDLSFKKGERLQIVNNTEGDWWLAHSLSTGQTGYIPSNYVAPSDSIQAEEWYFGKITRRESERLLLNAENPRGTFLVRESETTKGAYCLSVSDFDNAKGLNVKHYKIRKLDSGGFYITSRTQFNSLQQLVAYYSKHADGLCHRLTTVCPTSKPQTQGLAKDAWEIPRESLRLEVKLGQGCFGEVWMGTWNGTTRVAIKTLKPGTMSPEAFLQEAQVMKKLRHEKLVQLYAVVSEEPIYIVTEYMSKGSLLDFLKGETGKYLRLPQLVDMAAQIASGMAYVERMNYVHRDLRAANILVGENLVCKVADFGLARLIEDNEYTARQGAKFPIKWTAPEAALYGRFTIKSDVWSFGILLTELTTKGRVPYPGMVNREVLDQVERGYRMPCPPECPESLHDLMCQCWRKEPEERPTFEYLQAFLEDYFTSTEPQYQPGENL
T10 sequence (P00519 whole entry E255K): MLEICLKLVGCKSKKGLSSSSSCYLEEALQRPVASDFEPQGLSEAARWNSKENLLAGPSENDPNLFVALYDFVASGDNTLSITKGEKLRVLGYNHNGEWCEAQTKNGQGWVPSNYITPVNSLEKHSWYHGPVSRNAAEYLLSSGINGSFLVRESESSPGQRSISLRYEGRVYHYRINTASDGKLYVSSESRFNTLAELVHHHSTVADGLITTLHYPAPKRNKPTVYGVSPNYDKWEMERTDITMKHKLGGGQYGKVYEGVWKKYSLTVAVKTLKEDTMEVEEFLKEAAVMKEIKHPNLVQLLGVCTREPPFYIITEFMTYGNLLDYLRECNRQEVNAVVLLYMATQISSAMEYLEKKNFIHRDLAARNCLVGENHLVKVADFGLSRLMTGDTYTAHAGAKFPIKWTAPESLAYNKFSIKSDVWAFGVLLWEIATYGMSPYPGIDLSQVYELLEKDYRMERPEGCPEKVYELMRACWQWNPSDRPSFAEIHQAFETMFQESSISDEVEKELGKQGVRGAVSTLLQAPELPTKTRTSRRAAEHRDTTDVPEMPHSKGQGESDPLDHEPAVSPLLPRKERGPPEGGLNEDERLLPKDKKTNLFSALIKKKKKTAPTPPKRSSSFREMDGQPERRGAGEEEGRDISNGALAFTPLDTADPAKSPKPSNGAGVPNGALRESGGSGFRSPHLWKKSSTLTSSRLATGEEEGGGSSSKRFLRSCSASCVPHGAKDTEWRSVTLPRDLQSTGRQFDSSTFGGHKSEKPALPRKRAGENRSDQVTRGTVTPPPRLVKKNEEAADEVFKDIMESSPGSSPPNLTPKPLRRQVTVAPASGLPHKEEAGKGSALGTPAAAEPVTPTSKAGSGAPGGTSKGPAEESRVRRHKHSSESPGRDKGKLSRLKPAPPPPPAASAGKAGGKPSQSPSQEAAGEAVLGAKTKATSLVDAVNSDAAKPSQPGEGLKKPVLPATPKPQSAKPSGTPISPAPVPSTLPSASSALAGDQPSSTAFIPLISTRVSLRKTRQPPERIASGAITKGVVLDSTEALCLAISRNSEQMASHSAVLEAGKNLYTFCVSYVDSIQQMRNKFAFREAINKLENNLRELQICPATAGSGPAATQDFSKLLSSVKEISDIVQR
T1 sequence (P00519 whole entry): as the sequence (P00519 whole entry E255K) above, with K255E counted along it
T13 sequence (P07948 whole entry): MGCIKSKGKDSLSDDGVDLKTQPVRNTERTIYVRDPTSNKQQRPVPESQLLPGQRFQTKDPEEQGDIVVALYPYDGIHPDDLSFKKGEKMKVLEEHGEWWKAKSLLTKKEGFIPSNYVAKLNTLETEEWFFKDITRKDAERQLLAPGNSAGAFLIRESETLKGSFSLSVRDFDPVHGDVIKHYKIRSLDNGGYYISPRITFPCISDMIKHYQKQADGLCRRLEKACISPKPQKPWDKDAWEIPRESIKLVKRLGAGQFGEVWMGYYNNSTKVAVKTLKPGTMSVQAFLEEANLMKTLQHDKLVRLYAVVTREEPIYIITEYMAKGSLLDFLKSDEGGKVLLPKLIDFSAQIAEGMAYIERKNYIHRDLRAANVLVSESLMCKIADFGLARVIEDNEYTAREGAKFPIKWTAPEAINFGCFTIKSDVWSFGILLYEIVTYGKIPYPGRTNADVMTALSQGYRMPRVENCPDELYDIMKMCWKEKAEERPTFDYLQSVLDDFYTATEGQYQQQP
T7 sequence (P06241 whole entry, canonical isoform): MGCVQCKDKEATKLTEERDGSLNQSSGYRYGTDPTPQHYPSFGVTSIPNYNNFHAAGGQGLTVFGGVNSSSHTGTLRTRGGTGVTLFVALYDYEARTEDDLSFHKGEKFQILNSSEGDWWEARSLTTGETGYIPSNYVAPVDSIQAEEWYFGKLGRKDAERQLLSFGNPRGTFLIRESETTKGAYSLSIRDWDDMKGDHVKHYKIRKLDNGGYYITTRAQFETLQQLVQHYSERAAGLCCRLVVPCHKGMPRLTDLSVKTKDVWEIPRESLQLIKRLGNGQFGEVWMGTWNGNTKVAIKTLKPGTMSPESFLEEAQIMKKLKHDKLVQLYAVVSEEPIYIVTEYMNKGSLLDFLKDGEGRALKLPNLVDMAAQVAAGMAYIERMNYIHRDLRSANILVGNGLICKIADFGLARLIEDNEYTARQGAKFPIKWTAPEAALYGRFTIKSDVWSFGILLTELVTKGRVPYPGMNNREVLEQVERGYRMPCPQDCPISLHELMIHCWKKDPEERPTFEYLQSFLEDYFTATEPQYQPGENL
T15 sequence (Q07912 whole entry): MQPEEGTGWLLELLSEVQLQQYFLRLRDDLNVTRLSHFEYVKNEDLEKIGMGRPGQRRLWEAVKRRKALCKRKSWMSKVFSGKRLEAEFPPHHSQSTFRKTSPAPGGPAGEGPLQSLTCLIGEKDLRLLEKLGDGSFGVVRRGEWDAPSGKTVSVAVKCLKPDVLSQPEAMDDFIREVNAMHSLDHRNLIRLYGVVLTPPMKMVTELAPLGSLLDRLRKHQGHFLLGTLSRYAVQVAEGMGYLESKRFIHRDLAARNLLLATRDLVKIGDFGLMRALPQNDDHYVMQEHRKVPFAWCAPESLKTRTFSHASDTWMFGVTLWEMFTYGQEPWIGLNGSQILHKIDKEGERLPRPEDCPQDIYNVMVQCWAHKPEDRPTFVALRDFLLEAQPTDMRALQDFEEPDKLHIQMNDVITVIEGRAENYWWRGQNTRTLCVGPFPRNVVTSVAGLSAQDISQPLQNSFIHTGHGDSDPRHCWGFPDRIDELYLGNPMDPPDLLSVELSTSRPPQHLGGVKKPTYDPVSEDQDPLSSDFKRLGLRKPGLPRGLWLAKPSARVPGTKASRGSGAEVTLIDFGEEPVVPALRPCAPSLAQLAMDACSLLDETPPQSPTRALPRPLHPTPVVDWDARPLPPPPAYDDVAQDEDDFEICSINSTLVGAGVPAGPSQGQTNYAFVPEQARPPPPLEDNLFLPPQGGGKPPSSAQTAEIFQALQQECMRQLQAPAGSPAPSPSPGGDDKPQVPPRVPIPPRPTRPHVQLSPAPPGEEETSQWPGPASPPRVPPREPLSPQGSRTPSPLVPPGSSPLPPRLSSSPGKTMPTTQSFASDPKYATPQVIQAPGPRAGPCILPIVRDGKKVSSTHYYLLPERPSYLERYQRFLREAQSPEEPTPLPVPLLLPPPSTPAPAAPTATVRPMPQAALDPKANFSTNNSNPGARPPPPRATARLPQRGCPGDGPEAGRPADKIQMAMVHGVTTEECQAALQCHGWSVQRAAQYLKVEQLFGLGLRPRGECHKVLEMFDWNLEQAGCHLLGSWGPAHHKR

Row | Compound | inhibition at 0.001 µM [1] [%] | inhibition at 0.01 µM [1] [%] | inhibition at 0.001 µM [2] [%] | inhibition at 0.01 µM [2] [%] | IC50 [3] [nM] | inhibition at 0.01 µM [4] [%] | IC50 [5] [nM] | inhibition at 0.01 µM [6] [%] | inhibition at 0.01 µM [7] [%] | inhibition at 0.01 µM [8] [%] | inhibition at 0.01 µM [9] [%] | activity to inhibit kinases [10] | inhibition at 0.01 µM [11] [%] | inhibition at 0.001 µM [12] [%] | inhibition at 0.01 µM [12] [%] | inhibition at 0.001 µM [13] [%] | inhibition at 0.01 µM [13] [%] | inhibition at 0.01 µM [14] [%] | inhibition at 0.001 µM [15] [%] | inhibition at 0.01 µM [15] [%] | further results
1 | Cc1nc(Nc2ncc(C(=O)Nc3c(C)cccc3Cl)s2)cc(N2CC[C@H](N)C2)n1 [Compound XII, N-(2-chloro-6-methylphenyl)-2-[[2-methyl-6-((S)-3-aminopyrrolidin-1-yl)pyrimidin-4-yl]amino]thiazole-5-carboxamide] | > 50 | > 50 | > 50 | > 50 | < 20 | > 50 | < 50 | > 50 | > 50 | > 50 | > 50 | potent activity | > 50 | > 50 | > 50 | > 50 | > 50 | > 50 | > 50 | > 50 | inhibition at 0.001 µM [16]: > 50%; inhibition at 0.01 µM [16]: > 50%; inhibition at 0.01 µM [17]: > 50%; inhibition at 0.01 µM [18]: > 50%; inhibition at 0.01 µM [19]: > 50%
2 | Cc1nc(Nc2ncc(C(=O)Nc3c(C)cccc3Cl)s2)cc(N2CC[C@@H](N)C2)n1 [Compound XIII, N-(2-chloro-6-methylphenyl)-2-[[2-methyl-6-((R)-3-aminopyrrolidin-1-yl)pyrimidin-4-yl]amino]thiazole-5-carboxamide] | > 50 | > 50 | > 50 | > 50 | < 20 | > 50 | < 50 | > 50 | > 50 | > 50 | > 50 | potent activity | > 50 | > 50 | > 50 | > 50 | > 50 | > 50 | > 50 | > 50 | inhibition at 0.001 µM [16]: > 50%; inhibition at 0.01 µM [16]: > 50%; inhibition at 0.01 µM [17]: > 50%; inhibition at 0.01 µM [18]: > 50%; inhibition at 0.01 µM [19]: > 50%
